One test deals with Meloidogyne incognita. Nature of the test: Meloidogyne test (spray treatment). It counts as in vivo. The conditions noted are these: 20 g/ha, nematicidal effect from formation of galls on lettuce roots. Here is the method:
Meloidogyne Test (Spray Treatment)
Solvent: 80 parts by weight of acetone
Containers are filled with sand, solution of active compound, Meloidogyne incognita egg/larvae suspension, and lettuce seeds. The lettuce seeds germinate and the plants develop. On the roots, galls are formed.
After the desired time, the nematicidal effect is determined in % from the formation of galls. 100% here means that no galls were found; 0% means that the number of galls on the treated plants corresponds to that in the untreated control.

Test [1] relates to greenhouse red spider mite (Tetranychus urticae). Nature of the test: Tetranychus test (OP-resistant/spray treatment). Format: in vivo. An excerpt: Tetranychus Test (OP-Resistant/Spray Treatment)
Disks of bean leaves (Phaseolus vulgaris) which are infested by all stages of the greenhouse red spider mite (Tetranychus urticae) are sprayed with an active compound preparation in the desired concentration.

As to `COc1ccc(C2C3=C(CN(c4ccccc4)C3=O)Nc3cc4c(cc32)OCO4)cc1` (stereo not drawn), the “Kill rate in % after 14^d” value in the test on Meloidogyne incognita was 70%. On the same count and under the same terms, under `CCN1CC2=C(C1=O)C(c1ccc(OC)cc1)c1cc3c(cc1N2)OCO3` (stereo not drawn) stands 70%. For the compound `Clc1cccc(C2C3=C(CCC3)Nc3cc4c(cc32)OCO4)c1` (stereo not drawn) [Example 30], the “Kill rate in % after 7^d” value in test [1] (500 g/ha, after 7 d, sprayed bean leaf disks, all stages) is 70%. Besides, the “efficacy (in words)” value in test [1] (Tetranychus test) is recorded as “high efficacy”. Turning to `COc1cc2c(cc1OC)C(c1ccc3c(c1)OC(F)(F)O3)C1=C(COC1=O)N2` (stereo not drawn) [Example 68], the “Kill rate in % after 14^d” value with Meloidogyne incognita was found to be 80%. Same read-out and setting: the result for `COc1cc2c(cc1OC)C(c1ccc3c(c1)OCO3)C1=C(COC1=O)N2` (stereo not drawn) [Example 72] reads 100%.

The values above are taken from patent US20080113994A1, “Annelated Quinoline Derivatives As Pesticide” (priority 2004, published 2008).
